The test system of data set [1] is Raji. Kind of data set: animal or person. The following applies: Mus musculus, po, 576 h, read-out: TGI.
Description: Antitumor activity against human Raji cells xenografted in NOD-SCID mouse assessed as tumor growth inhibition at 1.5 mg/kg, po administered for 24 days relative to control
A short description of data set [2]: Toxicity in NOD-SCID mouse xenografted with human Raji cells assessed as change in body weight at 1.5 mg/kg, po administered for 24 days. In kind it is organism-based. The following applies: in vivo, 576 h, time 24 day. For orientation: A xenograft is tissue or cells of one species grown in another, often human tumour cells in immunodeficient mice.
Data set [3] is described as follows: Toxicity in NOD-SCID mouse xenografted with human Raji cells assessed as death at 1.5 mg/kg, po administered for 24 days. In kind it is organism-based. The following applies: in vivo, 576 h, time 24 day.
Data set [4] is described as follows: Toxicity in NOD-SCID mouse xenografted with human HCT-116 cells assessed as splenomegaly at 1.5 mg/kg, po administered for 21 days. In kind it is organism-based. The following applies: in vivo, 504 h, time 21 day.
Data set [5] in a line: Toxicity in NOD-SCID mouse xenografted with human HCT-116 cells assessed as change in body weight at 1.5 mg/kg, po administered for 24 days. In kind it is organism-based. The settings on record: in vivo, 576 h, time 24 day.
In data set [6] the test system is Mus musculus. As to the kind of experiment: Immunosuppressive activity in NOD-SCID mouse xenografted with human HCT-116 cells at 1.5 mg/kg, po for 21 days. In kind it is functional, organism-based. The following applies: time 21.0 day.
Data set [7] concerns HCT-116. Kind of data set: Antitumor activity against human HCT-116 cells xenografted in NOD-SCID mouse assessed as tumor growth inhibition at 1.5 mg/kg, po administered for 24 days relative to control. In kind it is functional. The settings on record: HCT-116, 576 h, time 24 day, read-out: TGI.

The source made the active and inactive calls. No cut-off for these calls is given here.

Inhibition in vivo and Activity data for one compound are collected here from ChEMBL document CHEMBL5352423, “Discovery of potent human dihydroorotate dehydrogenase inhibitors based on a benzophenone scaffold” (Eur J Med Chem, 2022).

`CCn1c(CO)nn(-c2cc(O[C@@H](C)C(F)(F)F)c(C(=O)Nc3c(F)cccc3Cl)cc2F)c1=O`: the results for the inhibition in vivo at 1.5 mg/kg in data set [1] and in data set [7] were 71.4% and 44.4%, respectively. In addition, the Activity result in data set [2] is recorded as “Non-Toxic”; in data set [3] it was “Non-Toxic”; in data set [4], “Toxic”; in data set [5], “Toxic”. Also, the outcome in data set [6] was Active.
